# Data reported in ChEMBL document CHEMBL4346723, “Targeting tropomyosin receptor kinase for cancer therapy” (Eur J Med Chem, 2019).
# Legend:
# [1] = system: OVCAR-3; test: Cytotoxicity against human OVCAR3 cells after 24 to 72 hrs by MTT assay; type: functional, cell-based
# [2] = system: SK-OV-3; test: Cytotoxicity against human SKOV3 cells after 24 to 72 hrs by MTT assay; type: functional, cell-based
# [3] = target: T1, High affinity nerve growth factor receptor (Homo sapiens, UniProt P04629); test: Inhibition of TRKA (unknown origin) using poly GT as substrate preincubated for 30 mins followed by substrate addition measured after 30 mins by TR-FRET Assay
# T1 sequence (P04629 whole entry): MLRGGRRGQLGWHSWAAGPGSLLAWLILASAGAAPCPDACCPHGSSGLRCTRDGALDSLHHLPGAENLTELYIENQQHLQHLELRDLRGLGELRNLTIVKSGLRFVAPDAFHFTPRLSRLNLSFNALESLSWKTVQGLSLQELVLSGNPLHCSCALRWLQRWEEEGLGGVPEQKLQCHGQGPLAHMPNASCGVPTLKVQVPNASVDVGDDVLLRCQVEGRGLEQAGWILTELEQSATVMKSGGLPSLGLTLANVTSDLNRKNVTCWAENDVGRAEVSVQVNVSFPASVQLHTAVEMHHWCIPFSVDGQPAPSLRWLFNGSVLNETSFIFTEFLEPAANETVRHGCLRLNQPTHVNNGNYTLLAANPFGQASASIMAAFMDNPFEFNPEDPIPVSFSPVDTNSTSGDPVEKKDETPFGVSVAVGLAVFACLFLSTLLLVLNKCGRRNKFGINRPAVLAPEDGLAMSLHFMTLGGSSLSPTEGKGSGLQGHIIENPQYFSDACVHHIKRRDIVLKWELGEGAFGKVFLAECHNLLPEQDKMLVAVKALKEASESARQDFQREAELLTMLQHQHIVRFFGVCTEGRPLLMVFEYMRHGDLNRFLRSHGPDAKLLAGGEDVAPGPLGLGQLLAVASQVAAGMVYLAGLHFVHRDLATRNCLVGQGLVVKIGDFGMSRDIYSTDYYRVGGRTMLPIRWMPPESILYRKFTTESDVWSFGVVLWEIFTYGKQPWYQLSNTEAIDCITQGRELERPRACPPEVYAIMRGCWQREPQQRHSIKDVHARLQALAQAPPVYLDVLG
# [4] = system: KM12; test: cells; conditions: Homo sapiens
# Description: Growth inhibition of human KM12 cells
# [5] = AUC (0 to 24 hrs) in cancer patient at 100 mg, twice daily; type: ADME; set-up: dose 100 mg, time < 24 hr; conditions: human, in vivo
# [6] = Half life in healthy volunteer at 100 mg, twice daily; conditions: human, in vivo
# [7] = Oral bioavailability in healthy volunteer at 100 mg, twice daily; conditions: human, in vivo
# [8] = Apparent oral clearance in healthy volunteer at 100 mg, twice daily; conditions: human, in vivo
# [9] = Volume of distribution at steady state in healthy volunteer at 100 mg, twice daily; conditions: human, in vivo, read-out: Vdss
# [10] = Tmax in cancer patient at 100 mg, twice daily; type: ADME; conditions: human, in vivo
# [11] = Inhibition of TRK (unknown origin); set-up: species or system Homo sapiens
# [12] = Cmax in cancer patient at 100 mg, twice daily; type: ADME; set-up: dose 100 mg; conditions: human, in vivo
# [13] = target: T1, High affinity nerve growth factor receptor; test: Inhibition of recombinant full length human TRKA expressed in U2OS cells using Poly(Glu:Tyr) as substrate after 30 mins by scintillation counting assay
# [14] = target: T1, High affinity nerve growth factor receptor; test: Inhibition of human TRKA expressed in human AD293 cells assessed as reduction in TrkA phosphorylation at Tyr490 residues preincubated for 20 mins followed by NGF-stimulation measure after 5 mins by ELISA; type: cell-based
# [15] = target: NTRK1/NTRK2 (Homo sapiens, UniProt P04629+Q16620); test: Inhibition of TRKA/TRKB (unknown origin); type: protein assay
# [16] = target: T2, Tyrosine-protein kinase JAK2 (Homo sapiens, UniProt O60674); test: Inhibition of recombinant C-terminal His6-tagged human JAK2 (808 to end residues) expressed in baculovirus infected SF21 insect cells using Tyr 1054/1055 biotinylated peptide as substrate after 60 mins by Alphascreen assay
# T2 sequence (O60674 whole entry): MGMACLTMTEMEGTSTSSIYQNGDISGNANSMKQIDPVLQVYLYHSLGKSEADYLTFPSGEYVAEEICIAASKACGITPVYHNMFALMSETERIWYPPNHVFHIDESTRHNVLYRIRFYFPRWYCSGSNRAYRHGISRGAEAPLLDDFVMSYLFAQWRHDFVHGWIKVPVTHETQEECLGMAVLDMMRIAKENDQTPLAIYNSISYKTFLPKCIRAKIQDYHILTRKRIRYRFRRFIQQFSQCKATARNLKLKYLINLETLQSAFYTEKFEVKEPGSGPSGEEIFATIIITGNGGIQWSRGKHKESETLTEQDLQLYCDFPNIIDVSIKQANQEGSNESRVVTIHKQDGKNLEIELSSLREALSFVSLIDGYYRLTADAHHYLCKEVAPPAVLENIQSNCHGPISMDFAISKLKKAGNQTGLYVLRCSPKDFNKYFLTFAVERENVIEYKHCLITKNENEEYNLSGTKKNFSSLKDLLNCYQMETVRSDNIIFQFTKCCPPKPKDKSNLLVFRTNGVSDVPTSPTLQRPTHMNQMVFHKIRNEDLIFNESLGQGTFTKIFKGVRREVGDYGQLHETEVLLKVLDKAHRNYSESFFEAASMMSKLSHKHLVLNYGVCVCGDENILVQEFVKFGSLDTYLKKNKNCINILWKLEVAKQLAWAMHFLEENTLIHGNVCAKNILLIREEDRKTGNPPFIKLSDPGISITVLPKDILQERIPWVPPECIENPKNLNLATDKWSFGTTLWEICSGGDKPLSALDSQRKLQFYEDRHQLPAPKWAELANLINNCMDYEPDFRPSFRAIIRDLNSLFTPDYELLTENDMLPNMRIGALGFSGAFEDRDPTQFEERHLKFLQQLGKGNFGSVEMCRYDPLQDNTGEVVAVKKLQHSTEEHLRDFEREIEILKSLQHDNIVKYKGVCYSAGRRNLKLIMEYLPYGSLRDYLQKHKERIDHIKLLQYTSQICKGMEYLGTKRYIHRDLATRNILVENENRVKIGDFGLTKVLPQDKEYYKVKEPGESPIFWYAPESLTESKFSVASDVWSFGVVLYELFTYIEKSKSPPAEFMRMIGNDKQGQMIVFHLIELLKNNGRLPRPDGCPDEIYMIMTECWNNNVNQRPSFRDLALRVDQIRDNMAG
# [17] = target: T2, Tyrosine-protein kinase JAK2; test: Inhibition of recombinant C-terminal His6-tagged human JAK2 (808 to end residues) expressed in baculovirus infected SF21 insect cells at 3 uM using Tyr 1054/1055 biotinylated peptide as substrate after 60 mins by Alphascreen assay relative to control
# [18] = cells; conditions: Homo sapiens, SR-786, 48 h
# Description: Antiproliferative activity against human SR786 cells incubated for 48 hrs by sulforhodamine B assay
# [19] = system: MV4-11; test: cells; conditions: Homo sapiens, MV4-11, 48 h
# Description: Antiproliferative activity against human MV4-11 cells incubated for 48 hrs by sulforhodamine B assay
# [20] = cells; conditions: Homo sapiens, SUP-M2, 48 h
# Description: Antiproliferative activity against human SUP-M2 cells incubated for 48 hrs by sulforhodamine B assay
# [21] = system: SU-DHL-1; test: cells; conditions: Homo sapiens, SU-DHL-1, 48 h
# Description: Antiproliferative activity against human SU-DHL1 cells incubated for 48 hrs by sulforhodamine B assay
# [22] = system: KARPAS-299; test: cells; conditions: Homo sapiens, KARPAS-299, 48 h
# Description: Antiproliferative activity against human KARPAS299 cells incubated for 48 hrs by sulforhodamine B assay
# [23] = target: T1, High affinity nerve growth factor receptor; test: Inhibition of N- terminal GST-tagged human TRKA cytoplasmic domain (436 to 790 end residues) using TK peptide as substrate after 60 mins by HTRF assay
# [24] = target: T3, BDNF/NT-3 growth factors receptor (Homo sapiens, UniProt Q16620); test: Inhibition of N- terminal GST-tagged human TRKB cytoplasmic domain (456 to 822 end residues) expressed in baculovirus expression system using TK peptide as substrate after 60 mins by HTRF assay
# T3 sequence (Q16620 whole entry, the tested form may be a part): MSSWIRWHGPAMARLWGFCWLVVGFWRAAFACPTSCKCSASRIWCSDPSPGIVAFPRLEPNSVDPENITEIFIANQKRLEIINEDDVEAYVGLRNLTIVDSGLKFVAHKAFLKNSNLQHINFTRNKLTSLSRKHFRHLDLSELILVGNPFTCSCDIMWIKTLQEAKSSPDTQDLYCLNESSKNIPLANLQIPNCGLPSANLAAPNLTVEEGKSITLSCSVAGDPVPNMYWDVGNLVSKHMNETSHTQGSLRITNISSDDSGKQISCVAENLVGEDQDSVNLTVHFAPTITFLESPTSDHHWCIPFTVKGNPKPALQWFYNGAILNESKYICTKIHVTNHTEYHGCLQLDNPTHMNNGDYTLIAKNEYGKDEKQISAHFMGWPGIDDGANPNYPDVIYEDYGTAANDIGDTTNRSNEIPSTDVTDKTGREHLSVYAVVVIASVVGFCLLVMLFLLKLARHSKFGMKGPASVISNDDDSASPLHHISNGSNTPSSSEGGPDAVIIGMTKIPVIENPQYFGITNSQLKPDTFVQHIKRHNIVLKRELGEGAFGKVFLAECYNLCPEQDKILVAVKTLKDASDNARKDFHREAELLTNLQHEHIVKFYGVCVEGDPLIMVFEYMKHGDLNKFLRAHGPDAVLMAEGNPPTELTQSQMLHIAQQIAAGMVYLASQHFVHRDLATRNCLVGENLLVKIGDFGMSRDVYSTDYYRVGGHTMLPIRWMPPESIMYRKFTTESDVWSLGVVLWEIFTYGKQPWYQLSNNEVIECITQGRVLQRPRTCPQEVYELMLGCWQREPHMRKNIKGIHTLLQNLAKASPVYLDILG
# [25] = target: T2, Tyrosine-protein kinase JAK2; test: Inhibition of N-terminal His-tagged human JAK2 catalytic domain (826 to 1132 end residues) expressed in baculovirus expression system using TK peptide as substrate after 120 mins by HTRF assay
# [26] = target: NT-3 growth factor receptor (Homo sapiens, UniProt Q16288); test: Inhibition of N- terminal GST-tagged human TRKC catalytic domain (456 to 825 end residues) expressed in baculovirus expression system using TK peptide as substrate after 60 mins by HTRF assay
# Sequence of NT-3 growth factor receptor (Q16288 whole entry, the tested form may be a part): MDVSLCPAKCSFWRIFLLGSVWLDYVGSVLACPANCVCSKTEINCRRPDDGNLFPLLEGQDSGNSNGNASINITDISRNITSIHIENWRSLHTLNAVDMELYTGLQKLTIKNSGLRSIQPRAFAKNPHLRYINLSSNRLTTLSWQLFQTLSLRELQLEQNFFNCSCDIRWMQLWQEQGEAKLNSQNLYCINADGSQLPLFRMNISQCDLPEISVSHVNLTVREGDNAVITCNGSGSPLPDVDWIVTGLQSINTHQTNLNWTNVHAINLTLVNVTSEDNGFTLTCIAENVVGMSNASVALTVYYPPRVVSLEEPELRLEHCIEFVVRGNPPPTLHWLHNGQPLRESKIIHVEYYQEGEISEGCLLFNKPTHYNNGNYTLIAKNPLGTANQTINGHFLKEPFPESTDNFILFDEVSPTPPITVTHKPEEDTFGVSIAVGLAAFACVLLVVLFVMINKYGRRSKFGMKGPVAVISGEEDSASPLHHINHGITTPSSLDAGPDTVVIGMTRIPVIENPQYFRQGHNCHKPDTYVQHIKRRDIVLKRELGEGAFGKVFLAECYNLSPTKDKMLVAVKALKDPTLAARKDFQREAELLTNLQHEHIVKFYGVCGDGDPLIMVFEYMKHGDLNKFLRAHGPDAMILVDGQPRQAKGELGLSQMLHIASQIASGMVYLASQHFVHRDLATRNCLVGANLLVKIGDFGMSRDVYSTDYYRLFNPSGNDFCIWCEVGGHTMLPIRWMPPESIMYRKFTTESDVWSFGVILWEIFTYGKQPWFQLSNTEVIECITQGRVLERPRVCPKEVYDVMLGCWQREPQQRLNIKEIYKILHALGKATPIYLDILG
# [27] = target: T1, High affinity nerve growth factor receptor; test: Inhibition of recombinant His-tagged human TRKA cytoplasmic domain (441 to 796 residues) expressed in baculovirus expression system using biotin labelled TK peptide preincubated for 20 mins followed by substrate addition by HTRF assay
# [28] = target: T1, High affinity nerve growth factor receptor; test: Inhibition TRKA (unknown origin)
# [29] = target: T3, BDNF/NT-3 growth factors receptor; test: Inhibition of TRKB (unknown origin)
# [30] = system: K562; test: Growth inhibition of human K562 cells; type: functional, cell-based
# [31] = target: T1, High affinity nerve growth factor receptor; test: Inhibition of recombinant N- terminal GST-tagged human NTRK1 expressed in baculovirus infected Sf9 cells using Poly(Glu:Tyr) as substrate after 45 mins
# [32] = system: IMR-32; test: Antiproliferative activity against human IMR32 cells by sulforhodamine B assay; type: functional, cell-based
# [33] = target: Tyrosine-protein kinase BTK (Homo sapiens, UniProt Q06187); test: Inhibition of BTK (unknown origin)
# Sequence of Tyrosine-protein kinase BTK (Q06187 whole entry): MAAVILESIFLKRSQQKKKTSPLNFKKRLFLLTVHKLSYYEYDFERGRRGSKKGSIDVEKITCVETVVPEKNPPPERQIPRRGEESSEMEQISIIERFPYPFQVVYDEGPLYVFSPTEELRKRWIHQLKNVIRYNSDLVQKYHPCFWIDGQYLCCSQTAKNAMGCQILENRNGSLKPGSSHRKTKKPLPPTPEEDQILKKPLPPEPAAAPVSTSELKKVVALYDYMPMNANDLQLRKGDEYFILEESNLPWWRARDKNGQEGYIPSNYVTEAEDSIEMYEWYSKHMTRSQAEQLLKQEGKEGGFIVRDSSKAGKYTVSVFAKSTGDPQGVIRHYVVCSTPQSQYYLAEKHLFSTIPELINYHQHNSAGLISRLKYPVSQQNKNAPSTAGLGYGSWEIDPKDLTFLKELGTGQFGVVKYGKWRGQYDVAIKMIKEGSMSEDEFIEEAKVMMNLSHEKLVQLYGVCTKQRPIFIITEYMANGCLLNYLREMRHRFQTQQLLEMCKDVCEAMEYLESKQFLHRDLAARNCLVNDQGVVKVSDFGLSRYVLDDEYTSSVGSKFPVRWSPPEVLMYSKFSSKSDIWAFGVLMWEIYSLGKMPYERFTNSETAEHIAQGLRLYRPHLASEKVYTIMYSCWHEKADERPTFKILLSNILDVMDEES
# [34] = target: T1, High affinity nerve growth factor receptor; test: Inhibition of NTRK1 in human KM12 cells; type: cell-based
molecule,measurement,setting,value
H-TGLDSDGLYQN-OH,IC50,[1],200 nM
same,IC50,[2],200 nM
O=C(c1cnc2ccc(N3CCCC3c3cc(F)ccc3F)cn12)N1CC[C@H](O)C1 (some centres undefined),IC50,[3],< 50 nM
O=C(Nc1cnn2ccc(N3CCC[C@@H]3c3cc(F)ccc3F)nc12)N1CC[C@H](O)C1.O=S(=O)(O)O [LAROTRECTINIB SULFATE],IC50,[4],1.9 nM
same,AUC,[5],4351 ng·h/mL
same,half-life,[6],2.9 h
same,bioavailability,[7],32 to 37%
same,CL/F,[8],98 L/h
same,Vd,[9],48 L
same,Tmax,[10],1 h
same,IC50,[11],2 to 20 nM
same,Cmax,[12],788 ng/mL
O=C(Nc1c(-c2ccccc2)nc2sccn12)NC1c2ccccc2-c2ccccc21,IC50,[13],30 to 35 nM
COCCN1C[C@@H](NC(=O)Nc2cc3cc(OC)c(OC)cc3nc2-c2ccccc2)[C@H](c2ccccc2)C1,IC50,[14],< 100 nM
CC(C)c1cc(C(=O)c2cccc(NC(=O)Nc3ccc(OCc4ccccc4)cc3)c2)c2c(N)ncnn12,IC50,[15],< 1 nM
Cc1cc(Nc2cnc(C#N)c(N[C@@H](C)c3ccc(F)cc3)n2)n[nH]1,IC50,[16],33 nM
Cc1cc(Nc2cncc(N[C@@H](C)c3ccc(F)cc3)n2)n[nH]1,inhibition,[17],100%
CN1CCN(c2ccc(C(=O)Nc3n[nH]c4ccc(Cc5cc(F)cc(F)c5)cc34)c(NC3CCOCC3)c2)CC1 [ENTRECTINIB],IC50,[18],81 nM
same,IC50,[19],81 nM
same,IC50,[20],41 nM
same,IC50,[21],20 nM
same,IC50,[22],31 nM
NC(=O)c1c(N)nn2cc(N3CCC[C@@H]3c3cc(F)ccc3F)cnc12,IC50,[23],< 1 nM
same,IC50,[24],< 10 nM
same,IC50,[25],> 2000 nM
same,IC50,[26],< 10 nM
O=C(c1cnc2ccc(N3CCCC3c3cc(F)ccc3F)cn12)N1CC(O)C1 (centres undefined),IC50,[3],< 50 nM
Nc1cc(CNC(=O)c2cc(NC(=O)c3cc(-c4cccc(F)n4)c(Cl)cc3Cl)n(-c3ccccc3)n2)ccn1,IC50,[27],1.02 nM
C[C@@H]1CCc2ncc(F)cc2[C@H]2CCCN2c2ccn3ncc(c3n2)C(=O)N1 [SELITRECTINIB],IC50,[11],> 1000 nM
CC(C)c1cc(C(=O)c2cccc(NC(=O)Nc3ccc(Cl)cc3Cl)c2)c2c(N)ncnn12,IC50,[15],< 1 nM
same,IC50,[28],< 1 nM
O=C(Nc1ccc(F)cc1)c1cnc2ccc(N3CCCC3c3cc(F)ccc3F)cn12 (centres undefined),IC50,[3],< 50 nM
CCN1CCN(Cc2ccc(NC(=O)Nc3nc4ccc(Oc5ccnc(C(=O)NC)c5)cc4s3)cc2C(F)(F)F)CC1,IC50,[4],19 nM
same,IC50,[29],4.42 nM
same,IC50,[28],3.81 nM
same,GI50,[30],51.4 nM
Nc1cc(CNC(=O)c2cc(NC(=O)c3cc(-c4cccc(F)n4)c(F)cc3Cl)n(-c3ccccc3)n2)ccn1,IC50,[27],1.04 nM
CC(C)(C)c1nnc(-c2cnn3ccc(N4CCCC4c4cc(F)ccc4F)nc23)o1 (centres undefined),IC50,[31],< 10 nM
CS(=N)(=O)c1ccc(-c2ccc(CNC(=O)Cn3c4c(c5ccccc53)CCn3nccc3-4)nc2)cc1 (centres undefined),IC50,[13],0.5 to 1 nM
Nc1nn2cc(N3CCC[C@@H]3c3cc(F)ccc3F)cnc2c1C(=O)Nc1ccc(F)cc1,IC50,[23],< 1 nM
same,IC50,[24],< 10 nM
same,IC50,[25],> 500 nM
same,IC50,[26],< 10 nM
C[C@H](Oc1cc(-c2cnn(C3CCNCC3)c2)cnc1N)c1c(Cl)ccc(F)c1Cl,IC50,[32],100 nM
CC(C)N1Cc2cc(cc(F)c2Cl)O[C@@H](C)CNC(=O)c2cnn3ccc1nc23,IC50,[29],1500 nM
same,IC50,[13],0.2 nM
same,IC50,[33],0.536 nM
C[C@H](Nc1ncc(F)c(Nc2cc(C3CC3)[nH]n2)n1)c1ccc(F)cn1,IC50,[11],10 nM
C[C@H](Nc1nccc(Nc2cc(C3CC3)[nH]n2)n1)c1ccc(F)cc1,IC50,[11],67 nM
COc1ncc(F)cc1[C@H]1C[C@H](F)CN1c1ccn2ncc(C#N)c2n1,IC50,[34],< 10 nM
CC(C)c1nnc(-c2cnn3ccc(N4CCCC4c4cc(F)ccc4F)nc23)o1 (centres undefined),IC50,[31],< 10 nM
O=C(Nc1cccnc1-c1ccccc1)NC1c2ccccc2-c2ccccc21,IC50,[13],27 to 30 nM
C[C@H](Nc1nc(Nc2cc(C3CC3)[nH]n2)c(F)cc1CNC(=O)C1CCC(=O)N1)c1ccc(F)cc1 (some centres undefined),IC50,[11],611 nM
C[C@H](Nc1ncc(Cl)c(Nc2cc(C3CC3)[nH]n2)n1)c1ccc(F)cn1,IC50,[11],8 nM
